Earlier results in patent US20060134216A1, “Enteric film coating composition containing enteric polymer micronized with detackifier” (priority 2004, published 2006).

Settings: aqueous solution at pH values under 4.0

half-life: less than ten
Compound: COc1ccc2[nH]c([S+]([O-])Cc3ncc(C)c(OC)c3C)nc2c1 (stereo not shown) [omeprazole]
